Laboratory results taken from article PMC7069095, “A cell-permeable peptide-based PROTAC against the oncoprotein CREPT proficiently inhibits pancreatic cancer” (Theranostics, 2020).
Residues, ends and D or L forms follow the SMILES beside them. No end group written: not given here. *: point of attachment. Cbz = O=C(OCc1ccccc1)*

Assays:
[1] = target: T1, purified GST-CREPT protein (Homo sapiens, UniProt Q9NQG5); experiment: Microscale thermophoresis (MST); format: binding; settings: FITC-labeled peptide 100 nM, gradient dilutions of purified GST-CREPT
T1 construct: made in house
T1 sequence (Q9NQG5 1-326): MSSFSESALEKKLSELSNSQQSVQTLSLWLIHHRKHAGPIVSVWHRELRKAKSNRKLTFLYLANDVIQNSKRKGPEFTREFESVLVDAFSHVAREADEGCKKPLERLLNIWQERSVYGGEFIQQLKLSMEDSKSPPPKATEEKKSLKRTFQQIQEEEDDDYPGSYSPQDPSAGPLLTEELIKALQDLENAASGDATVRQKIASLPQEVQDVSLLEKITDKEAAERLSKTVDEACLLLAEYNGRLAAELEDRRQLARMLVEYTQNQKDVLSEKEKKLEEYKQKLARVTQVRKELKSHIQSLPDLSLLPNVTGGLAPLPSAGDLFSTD
Protocol: FITC-labeled PRTC and PRTC-m were regarded as ligands. After a pretest, 100 nM of both PRTC and PRTC-m generated the most appropriate value of fluorescence. Gradient dilutions of purified CREPT proteins were regarded as the target. The Kd value was measured by Microscale Thermophoresis NT.115 and was analyzed by MO.AffinityAnalysis (Nano Temper, German).

[2] = tested on: Panc-1 cells; experiment: Wound healing; format: cell-based; settings: 10 μM for 24 h, FBS-free DMEM
Protocol: Cells were seeded in 6-well plates. Monolayer cells were scratched after culturing to obtain at least 95% confluence. Cells were washed with PBS and maintained in FBS-free DMEM and then treated with 10 μM PRTC and PRTC-m for 24 h. Migration distance was observed by microscopy and was measured by ImageJ from three individual experiments.

[3] = target: T2, ubiquitinated CREPT in Panc-1 cells (Homo sapiens, UniProt Q9NQG5); experiment: Endogenous IP of CREPT with ubiquitin (Co-IP); format: cell-based; settings: 10 μM peptide for 24 h, IP: CREPT, IB: anti-ubiquitin
T2 construct: endogenous protein level of CREPT in Panc-1, AsPc-1 and MIA-PaCa-2 cells; endogenous in cells; host or cells: Panc-1, AsPc-1, MIA PaCa-2
T2 sequence (Q9NQG5 1-326): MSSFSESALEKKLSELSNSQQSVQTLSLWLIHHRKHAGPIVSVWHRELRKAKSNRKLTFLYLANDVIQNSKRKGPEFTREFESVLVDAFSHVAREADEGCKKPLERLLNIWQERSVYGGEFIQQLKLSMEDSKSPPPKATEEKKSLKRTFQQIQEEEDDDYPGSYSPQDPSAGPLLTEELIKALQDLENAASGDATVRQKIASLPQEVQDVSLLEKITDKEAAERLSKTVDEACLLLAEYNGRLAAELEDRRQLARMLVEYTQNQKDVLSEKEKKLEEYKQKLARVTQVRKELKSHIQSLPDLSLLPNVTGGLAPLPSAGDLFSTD
Protocol: (§1) For exogenous immunoprecipitation assays, HEK293T cells were plated in 60 mm dishes and then transfected with the indicated plasmids. After 24 h, cells were harvested using RIPA buffer (50 mM Tris-HCl pH 8.0, 2 mM EDTA pH 8.0, 150 mM NaCl, 1% NP-40, 0.5% sodium deoxycholate, 0.1% SDS) with mixed protease inhibitors. Cell lysates were incubated with 2 μg of the indicated antibodies and 30 μL of protein A/G-Sepharose beads at 4 °C overnight. Beads were eluted five times with lysis buffer (50 mM Tris-HCl pH 7.6, 1 mM EDTA pH 8.0, 165 mM NaCl, 0.5% NP-40), and thereafter, a western blot assay was performed to analyze the association by using the indicated antibodies. Western blot was performed as previously reported. Anti-β-actin and anti-Flag antibodies were purchased from Sigma. Anti-Myc antibody was purchased from Santa Cruz Biotechnology. Antibody against CREPT was produced in the laboratory.
In addition, a Co-IP experiment was performed in Panc-1 cells treated with 10 μM PRTC, PRTC-m or PRTC-v for 24 h. […] In the absence of MG132, the level of ubiquitinated CREPT was further increased by PRTC (Figure 6C, compare lane 1 and lane 2).
Figure 6 The degradation of CREPT by PRTC is dependent on its VHL ligand. (A) Immunoblot of CREPT following 24 h incubation with different dosages of PRTC or PRTC-v in Panc-1 cells. (B) Immunoblot of CREPT exposed to 10 μM PRTC or PRTC-v for different time points in Panc-1 cells. (C) Endogenous IP experiment of CREPT with ubiquitin treated with 10 μM PTRC, PTRC-m or PTRC-v in Panc-1 cells. IP: CREPT, IB: Anti-ubiquitin.

[4] = target: T3, CREPT protein (Homo sapiens, UniProt Q9NQG5); experiment: Thermal shift assay (TSA); format: binding; settings: GST-tagged CREPT 5.33 μM, SYPRO Orange, 25 to 70 °C at 1 °C/min
T3 construct: made in house
T3 sequence (Q9NQG5 1-326): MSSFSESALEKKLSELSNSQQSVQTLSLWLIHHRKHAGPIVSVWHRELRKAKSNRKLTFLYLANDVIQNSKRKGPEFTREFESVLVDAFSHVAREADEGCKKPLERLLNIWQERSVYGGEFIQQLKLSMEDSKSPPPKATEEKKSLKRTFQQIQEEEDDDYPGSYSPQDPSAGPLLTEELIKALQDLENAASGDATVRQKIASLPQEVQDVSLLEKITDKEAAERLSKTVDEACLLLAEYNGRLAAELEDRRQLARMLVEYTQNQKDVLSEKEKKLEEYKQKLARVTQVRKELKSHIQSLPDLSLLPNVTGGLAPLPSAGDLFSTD
Protocol: Purified CREPT proteins were appropriately diluted in a buffer containing 50 mM Tris-HCl, pH 8.0, 150 mM NaCl. The final concentration of CREPT protein was 5.33 μM. SYPRO Orange dye was diluted into 10 μM. The PCR plates were sealed, shaken, and centrifuged after proteins and peptides were added. Thermal scanning (25 to 70 °C at 1 °C/min) was performed using a real-time PCR instrument (Bio-Rad). Melting curves were generated by Prism 7.0 based on the raw data.

[5] = target: T4, endogenous CREPT protein in Panc-1 cells (Homo sapiens, UniProt Q9NQG5); experiment: Western blot of endogenous CREPT (degradation); format: cell-based
T4 construct: endogenous protein level of CREPT in Panc-1, AsPc-1 and MIA-PaCa-2 cells; endogenous in cells; host or cells: Panc-1, AsPc-1, MIA PaCa-2
T4 sequence (Q9NQG5 1-326): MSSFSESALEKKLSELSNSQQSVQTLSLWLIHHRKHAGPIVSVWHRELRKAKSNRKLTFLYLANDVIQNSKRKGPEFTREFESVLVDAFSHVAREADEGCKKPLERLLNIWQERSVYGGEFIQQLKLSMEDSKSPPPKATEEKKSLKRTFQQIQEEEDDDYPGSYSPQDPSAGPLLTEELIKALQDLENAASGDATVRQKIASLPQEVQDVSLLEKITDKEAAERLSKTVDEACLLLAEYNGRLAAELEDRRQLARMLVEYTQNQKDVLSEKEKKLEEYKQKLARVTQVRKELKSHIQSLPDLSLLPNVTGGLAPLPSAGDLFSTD
Protocol: as §1
To address whether PRTC could induce CREPT degradation, we examined the endogenous protein level of CREPT in Panc-1, AsPc-1 and MIA-PaCa-2 cells in the presence of different dosages of PRTC. […] Consistently, treatment with PRTC led to decreases in CREPT protein at different times (Figure 5B, S3A). […] To further visualize the degradation process, we stained the endogenous CREPT protein with an antibody against CREPT in the cells treated with FITC-labeled PRTC.
Figure 5 PRTC induces the ubiquitination and proteasome- dependent degradation of the endogenous CREPT protein. (A) Immunoblot of CREPT following 24 h incubation with different dosages of PRTC or PRTC-m in Panc-1 cells. (B) Immunoblot of CREPT exposed to 10 μM PRTC or PRTC-m for different times in Panc-1 cells. (C) Western blot analysis of CREPT following 24 h incubation with 10 μM PTRC in Panc-1 cells. MG132 is an inhibitor of proteasome activity. (D) Immunofluorescence visualization of Panc-1 cells after treatment with PRTC for 24 h. Cells were stained with anti-CREPT antibody. Scale bars, 20 μm.

[6] = tested on: Panc-1 cells; experiment: Cell viability assay (CCK-8); format: cell-based; settings: 10 μM, CCK-8, OD450, three individual experiments
Protocol: Cells were seeded into 96-well plates (1000 cells per well) and cultured for the indicated times. Cell viability was evaluated using a CCK-8 kit (Solarbio, Beijing, China). The value of OD450 was calculated by spectrophotometer and presented as the mean ± standard deviation (SD) from three individual experiments.

[7] = Circular dichroism (CD) spectroscopy; format: physicochemical; settings: 0.1 mg/mL in deionized water, room temperature
Protocol: All peptides were dissolved in the deionized water at a final concentration of 0.1 mg/mL. The CD spectra were measured by using a 1 nm bandwidth with a 1 nm step resolution from 190 to 260 nm at room temperature (Jasco spectropolarimeter, Japan). Final spectra were obtained from the average of three parallel scans after subtracting a spectrum of deionized water recorded under the same conditions. Each sample was scanned thrice and the averaged spectrum was smoothed. The helicity were calculated by CDNN 2.1 [59], [60].

[8] = target: T5, Flag-CREPT (Homo sapiens, UniProt Q9NQG5); experiment: GST pull-down; format: binding; settings: GST-tagged proteins purified from mammalian (HEK293T) cells
T5 construct: expressed in transfected cells; host or cells: HEK293T
T5 sequence (Q9NQG5 1-326): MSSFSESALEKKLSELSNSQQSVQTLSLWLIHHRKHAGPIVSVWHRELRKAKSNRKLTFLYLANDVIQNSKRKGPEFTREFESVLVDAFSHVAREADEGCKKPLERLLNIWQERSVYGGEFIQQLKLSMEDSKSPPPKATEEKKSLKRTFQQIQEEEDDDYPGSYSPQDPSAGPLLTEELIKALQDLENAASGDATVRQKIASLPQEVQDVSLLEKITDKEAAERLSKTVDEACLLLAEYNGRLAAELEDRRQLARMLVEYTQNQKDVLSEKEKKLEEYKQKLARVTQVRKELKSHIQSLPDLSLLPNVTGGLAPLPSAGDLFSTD
Protocol: HEK293T cells were plated in 100 mm dishes and then transfected with the indicated plasmids. After 24 h, cells were harvested using RIPA buffer with mixed protease inhibitors. Cell lysates were incubated with 30 μL of GST-tagged Sepharose beads and 10 μg of purified proteins from either E. coli or HEK293T cells at 4 °C overnight. Beads were eluted five times with lysis buffer. Western blot was performed using an antibody against GST (Cell Signaling Technology) to analyze the association.

[9] = tested on: Myc-CREPT and Myc-CCT; experiment: Exogenous IP experiment in HEK293T cells; format: binding; settings: GST-tagged CREPT ligand
Protocol: as §1

[10] = tested on: Panc-1 cells; experiment: Flow cytometry, entry of FITC-labeled peptides into cells; format: cell-based; settings: flow cytometry, FITC-labeled peptides, 10 μM, Panc-1 cells, triplicate; in comparison with PRTC, PRTC-m or PRTC-v
Protocol: To examine whether PRTC could permeate into pancreatic cancer cells, we synthesized fluorescein isothiocyanate (FITC) labeled PRTC, PRTC-m, PRTC-v, PRTC-r (PRTC without RRRRK) as well as TAT (a widely used cell penetrating peptide, as a positive control).
Figure 3 Identification of the permeability of PRTC in Panc-1 cells. (A) Entry of FITC- labeled peptides into Panc-1 cells tested by flow cytometry. FITC-TAT is the positive control. Measurements were performed in triplicate. (B) Quantification of cellular uptake of Panc-1 cells treated with different concentrations of FITC-PRTC. (C) Confocal microscope images of Panc-1 cells treated with 10 μM FITC labeled peptides. Scale bars, 10 μm. (D) Confocal microscope images of Panc-1 cells treated with different dosages of FITC-PRTC. Scale bars, 10 μm.

## IYP (OH) AL-AHX-KDVPSEKEKKPEEYKQKPARV-RRRRK [PRTC-m, three leucine residues on PRTC were replaced with proline residues]
[1]
  association with CREPT (MST): failed to associate
[2]
  cell movement (wound healing): not
[3]
  ubiquitinated CREPT proteins: unable to mediate the accumulation
[4]
  effect on thermal stability of CREPT: failed to alter
[5]; 10 μM or 20 μM peptide
  CREPT protein level at different times: no effect
[6]
  cell proliferation: failed
[7]
  secondary structure by CD spectrum: disordered structure
[7]; 190 to 260 nm, average of three scans, calculated by CDNN 2.1
  Helicity: 7.9%

## GST-CL: GST protein tagged with CREPT ligand (CL) (KDVLSEKEKKLEEYKQKLARV; also: GST tag, end not given here)
[8]
  pull down of Flag-CREPT in vitro: able to pull down
[9]
  binding in exogenous IP: strongly binds

## CC(C)C[C@@H](C=O)NC(=O)[C@H](CC(C)C)NC(=O)[C@H](CC(C)C)NC(=O)OCc1ccccc1 [MG132, reference compound] (Cbz-Leu-Leu-Leu-aldehyde)
[5]; 24 h incubation with 10 μM PRTC
  effect on PRTC-induced CREPT degradation: completely abolished

## IYP (OH) AL-AHX-KDVLSEKEKKLEEYKQKLARV [PRTC-r, PRTC without RRRRK]
[10]
  fluorescence intensity in the cells (cell entry): obviously decreased

## GST-CL-m: GST protein tagged with CL-m (KDVPSEKEKKPEEYKQKPARV; also: GST tag, end not given here)
[8]
  pull down of Flag-CREPT in vitro: lost the ability to associate
[9]
  binding in exogenous IP: failed to bind
